# Measurements published in BindingDB's records for doi:10.1021/acs.jmedchem.1c00019 (National Center For Advancing Translational Sciences, 2021).
# Values joined by “and” are separate entries in the source; they are usually repeats but may differ in a detail not shown here. Equal entries are not always repeated.
# Key:
# [1] = target: T1, Isocitrate dehydrogenase [NADP] cytoplasmic (Homo sapiens, UniProt O75874); assay: Inhibition of IDH1 R132C mutant (unknown origin) assessed as reduction in NADPH consumption using alpha-KG as substrate incubated for 5 mins by diaphorase/resazurin-coupled system
# Target sequence in this assay (O75874 2-414 R132C limits assumed): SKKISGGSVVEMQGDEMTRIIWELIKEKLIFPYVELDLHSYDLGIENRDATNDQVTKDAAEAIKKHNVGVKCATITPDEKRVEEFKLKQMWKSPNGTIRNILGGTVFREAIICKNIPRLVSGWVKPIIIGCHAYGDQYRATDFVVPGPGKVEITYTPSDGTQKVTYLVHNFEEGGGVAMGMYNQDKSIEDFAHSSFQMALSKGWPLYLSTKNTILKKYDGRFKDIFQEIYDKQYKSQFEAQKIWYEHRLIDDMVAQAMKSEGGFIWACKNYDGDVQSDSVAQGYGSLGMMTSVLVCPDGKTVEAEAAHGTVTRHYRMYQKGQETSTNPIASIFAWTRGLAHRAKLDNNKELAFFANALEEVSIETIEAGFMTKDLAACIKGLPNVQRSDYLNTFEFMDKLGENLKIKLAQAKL
# [2] = target: T1, Isocitrate dehydrogenase [NADP] cytoplasmic; assay: Inhibition of IDH1 R132H mutant (unknown origin) assessed as reduction in NADPH consumption using alpha-KG as substrate incubated for 5 mins by diaphorase/resazurin-coupled system
# Target sequence in this assay (O75874 2-414 R132H limits assumed): as the sequence (O75874 2-414 R132C limits assumed) above, with C131H counted along it
IC50 [1],IC50 [2],SMILES
100 nM and 72 nM,114 nM and 81 nM,CCc1ccc(Cl)cc1-n1c(C=C(C)C)c(C(=O)N2CCNCC2)cc(-c2nc(-c3ccc(Cl)cc3)cs2)c1=O
130 nM,,CCc1ccc(OC)cc1-n1c(C=C(C)C)c(C(=O)N2CCNCC2)cc(-c2nc(-c3ccc(Cl)cc3)cs2)c1=O
